Measurements from US10100082B2, “Hexapeptide for neuroprotection against a β toxicity” (Council of Scientific and Industrial Research, priority 2016, dated 2018).
One block for each substance: values may come before it. The star is where a group is joined. FITC = O=C1OC2(c3ccc(O)cc3Oc3cc(O)ccc32)c2ccc(NC(=S)*)cc21

Key:
tubulin = tubulin mix with GTP, 30 min at 37° C., 561 nm channel
Procedure: Hexapeptide ‘NV’-Tubulin Interaction Study on Biotin Micropatterned Surface
Biotin micropatterned surfaces were prepared as previously described method. A flow chamber of around 5 μL was built from one biotin-patterned glass surface and one poly-L-lysine (PLL)-PEG passivated counter glass, separated by two strips of double sticky tape (Tesa). Flow chamber was equilibrated with BRB80 and incubated with β-casein for 10 min followed by washing with 20 μL BRB80 for complete removal of unbound β-casein. 100 nM neutravidin was flowed into the flow chamber and incubated for 10 min followed by removal of excess neutravidin with 20 μL BRB80. […] Then, the flow chamber was filled with 18.5 μM tubulin mix (80:20 unlabeled tubulin and Alexa568 tubulin) in BRB80 supplemented with 3 mM GTP, 10 mM MgCl2, and an oxygen scavenger system (50 mM glucose, 1 mg mL^−1 glucose oxidase, and 0.5 mg mL^−1 catalase) on an ice cold metal block and placed to the TIRF microscope at 37° C. Then flow chamber was imaged using an IX-81 total internal reflection fluorescence (TIRF) microscope (Olympus) with a 60×TIRFM objective (Olympus; Hamburg, Germany) and an Andor iXon3 897 Camera. Control experiment was performed, following previously described method without immobilizing ‘Bio-NV’ on biotin micropatterned surface.

[1] = test system: neuronally differentiated PC12 cells; assay: Neuroprotection against anti-NGF toxicity (NGF deprivation), intact nuclear counting; type: cell-based, rat; settings: higher concentrations of NV
Procedure: On the fifth day they were treated overnight with anti-NGF along with different doses of inhibitor NV (FIG. 4d). […] The cells were observed under the microscope on the day following treatment; survival was assessed by intact nuclear counting assay (FIG. 4d).
Rat pheochromocytoma cells (PC12) cells were cultured as described previously (ESI) in RPMI medium supplemented with 10% heat-inactivated horse serum (HS) and 5% heat-inactivated fetal bovine serum. Neuronal differentiation of these cells was induced by NGF (100 ng/mL) in medium containing 1% horse serum for 6 days before the treatment, as previously described.
The cell viability was checked by the intact nuclear counting method. This assay was performed as described previously. In brief, a detergent containing the buffer that dissolved only the plasma membrane was added to the cells, the nuclear membrane thus remained intact. The intact nuclei were then counted on a haemocytometer under a light microscope. The number of live cells was expressed as percentage of the total cell population.

amyloid beta = settings: previous study; cited from earlier work
tau = settings: previous study; cited from earlier work
polymerized microtubules = assay: FITC-NV binding with microtubule at tubulin polymerization; settings: FITC-NV during polymerization of alexa-568 labeled tubulin with GTP
Procedure: Hexapeptide NV Binding with Microtubule at Tubulin Polymerization
Mixture 1: Alexa Fluor 568-labeled tubulin (0.5 μL, 15 mg mL^−1, 65% labelling ratio), Tubulin (2 μL, 20 mg mL^−1), FITC-NV (0.5 μL, 1 mM), GTP (0.2 μL, […]) and BRB80 (46.8 μL; 80 mM PIPES, 1 mM EGTA; 1 mM MgCl2, pH adjusted to 6.8 by using concentrated KOH solution) were mixed on ice. The mixture was incubated for 30 min on 37° C. water bath.
Mixture 2: Taxol (0.4 μL, 1 mM) and BRB80 (180 μL) were mixed.
Final Mixture: After 30 min incubation 50 μL warmed mixture 2 was added into mixture 1. Then this mixture was separated in a table top centrifuge (7 min, 12000 rpm, Eppendorf 5810R bench-top centrifuge, rotor type F-34-6-38). The coloured pellet was resuspended in warm mixture 2. 10 μL resuspended solution of microtubule was placed on glass cover slip and imaged under inverted fluorescence microscope (NIKON Ti-U) in 40× magnification using ANDOR iXON3 camera.

Substance: Biotin-NAPVSIPQ-NH2 [Biotin-NV]
binding of tubulin to immobilized Biotin-NV on micropatterns (tubulin): localized binding of tubulin

Substance: H-NAVSIQ-NH2 [NV, NH2-NAVSIQ-NH2]
toxicity to control cells [1]: showed toxicity to control cells

Substance: NH2-NAPVSIPQ-NH2 [NQ]
inhibition of amyloid beta fibrillation in vitro (amyloid beta): inhibits amyloid beta fibrillation in vitro
inhibition of tau hyper phosphorylation in vivo (tau): inhibit tau hyper phosphorylation in vivo

binding with polymerized microtubules (polymerized microtubules): binds with polymerized microtubules
Substance: {FITC}-NAVSIQ-NH2 [FITC-NV]
